For series [1], the system named is hTRPA1 carrying single mutations (C414A, C421A, C621A, C641A, C665A or K710R). Description: Whole-cell patch-clamp of mutant hTRPA1 channels. It counts as cell-based, human. To be noted: 30 μM flufenamic acid. On the procedure: (§1) Human embryonic kidney 293 (HEK293) cells were cultured in DMEM containing 10% (vol/vol) heat-inactivated fetal bovine serum, 100 units ml^−1 penicillin–streptomycin and 2 mM L-glutamine at 37 °C in a humidity-controlled sterile incubator with 5% CO2. All cell culture reagents were purchased from Life Technologies. HEK293 cells were transfected transiently with the corresponding plasmids using lipofectamine 2000 (Life Technologies). Transfection efficiency was monitored by co-transfecting EGFP plasmid which codes for the enhanced green fluorescent protein. Electrophysiological recordings were performed between 24 and 36 h after transfection.
Whole-cell patch-clamp recordings in DRG neurons (small diameter, […]) and HEK293 cells were operated at room temperature (23–25 °C) using EPC-10 amplifier and Patch Master Software (HEKA). […] Currents were sampled at 10 kHz and low-pass filtered at 2.9 kHz. The internal solution was as follows (in mM): 140 CsCl, 10 HEPES, 5 EGTA, 0.1 CaCl2 and 1 MgCl2, with pH adjusted to 7.2 by CsOH and osmolarity 295–300 mOsm. […] TRPA1 currents development was monitored with repetitive injections of 300 ms duration voltage ramps from −100 to +100 mV every 2 s and the holding potential was set to 0 mV for 50 ms, existing in both sides of the voltage ramp. […]
A general note: The patch-clamp technique gives a direct electrical read-out from membranes.

Series [2] concerns the target T1, cTRPA1 (Gallus gallus, UniProt W8VTH6).
T1 sequence (W8VTH6 1-1126): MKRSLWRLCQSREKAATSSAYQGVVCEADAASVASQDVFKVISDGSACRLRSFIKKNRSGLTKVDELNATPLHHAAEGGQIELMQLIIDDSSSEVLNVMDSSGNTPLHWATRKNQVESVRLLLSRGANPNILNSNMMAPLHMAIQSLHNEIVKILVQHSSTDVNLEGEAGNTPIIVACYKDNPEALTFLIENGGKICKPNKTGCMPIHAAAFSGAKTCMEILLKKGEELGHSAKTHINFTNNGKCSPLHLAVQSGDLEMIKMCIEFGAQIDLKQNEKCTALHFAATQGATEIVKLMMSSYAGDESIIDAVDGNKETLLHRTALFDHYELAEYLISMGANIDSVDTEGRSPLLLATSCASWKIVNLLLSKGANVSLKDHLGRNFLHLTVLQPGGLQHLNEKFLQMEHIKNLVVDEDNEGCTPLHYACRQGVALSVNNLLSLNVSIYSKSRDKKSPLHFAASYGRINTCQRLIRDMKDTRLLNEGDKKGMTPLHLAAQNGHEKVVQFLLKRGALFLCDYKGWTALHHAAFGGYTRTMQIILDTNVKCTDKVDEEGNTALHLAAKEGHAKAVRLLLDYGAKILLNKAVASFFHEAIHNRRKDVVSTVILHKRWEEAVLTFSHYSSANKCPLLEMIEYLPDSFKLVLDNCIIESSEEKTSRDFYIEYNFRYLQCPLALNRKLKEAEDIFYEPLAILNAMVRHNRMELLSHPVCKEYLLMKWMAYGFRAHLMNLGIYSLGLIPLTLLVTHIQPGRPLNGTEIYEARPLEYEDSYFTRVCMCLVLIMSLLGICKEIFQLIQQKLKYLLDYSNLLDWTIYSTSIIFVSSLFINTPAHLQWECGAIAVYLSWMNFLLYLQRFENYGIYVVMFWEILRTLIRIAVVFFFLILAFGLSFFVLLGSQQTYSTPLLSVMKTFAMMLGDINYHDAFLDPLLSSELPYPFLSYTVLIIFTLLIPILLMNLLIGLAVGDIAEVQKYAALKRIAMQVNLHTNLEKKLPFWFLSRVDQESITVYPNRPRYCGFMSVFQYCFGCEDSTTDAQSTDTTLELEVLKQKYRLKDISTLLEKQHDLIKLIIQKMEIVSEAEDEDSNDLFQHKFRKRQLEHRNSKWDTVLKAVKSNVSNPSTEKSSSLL
Description: Whole-cell patch-clamp, HEK293 cells expressing cTRPA1. It counts as cell-based, chicken. The method, then:
All cell culture reagents were purchased from Life Technologies. HEK293 cells were transfected transiently with the corresponding plasmids using lipofectamine 2000 (Life Technologies). Transfection efficiency was monitored by co-transfecting EGFP plasmid which codes for the enhanced green fluorescent protein. Electrophysiological recordings were performed between 24 and 36 h after transfection.
Whole-cell patch-clamp recordings in DRG neurons (small diameter, […]) and HEK293 cells were operated at room temperature (23–25 °C) using EPC-10 amplifier and Patch Master Software (HEKA). […] Currents were sampled at 10 kHz and low-pass filtered at 2.9 kHz. […] The calcium-free external solution contained (in mM) 140 NaCl, 5 KCl, 0.5 EGTA, 1 MgCl2, 10 Glucose and 10 HEPES, with pH adjusted to 7.4 by NaOH and osmolarity 300–310 mOsm. The 0.5 mM EGTA was replaced by 2 mM CaCl2 for the recordings in DRG neurons. TRPA1 currents development was monitored with repetitive injections of 300 ms duration voltage ramps from −100 to +100 mV every 2 s and the holding potential was set to 0 mV for 50 ms, existing in both sides of the voltage ramp. To record inward currents in DRG neurons, we conducted voltage clamp at holding membrane potential of −70 mV. Solutions were switched using a gravity-fed continuous focal perfusion system.

The target in series [3] is T2, rTRPA1 (Rattus norvegicus, UniProt Q6RI86).
T2 construct: expressed in transfected cells; host or cells: HEK293, transient
Briefly: Whole-cell patch-clamp, HEK293 cells expressing rTRPA1. It counts as cell-based. To be noted: 30 μM, calcium-free external solution. On the procedure: as §1
(§2) Whole-cell patch-clamp recordings in DRG neurons (small diameter, […]) and HEK293 cells were operated at room temperature (23–25 °C) using EPC-10 amplifier and Patch Master Software (HEKA). […] Currents were sampled at 10 kHz and low-pass filtered at 2.9 kHz. The internal solution was as follows (in mM): 140 CsCl, 10 HEPES, 5 EGTA, 0.1 CaCl2 and 1 MgCl2, with pH adjusted to 7.2 by CsOH and osmolarity 295–300 mOsm. The calcium-free external solution contained (in mM) 140 NaCl, 5 KCl, 0.5 EGTA, 1 MgCl2, 10 Glucose and 10 HEPES, with pH adjusted to 7.4 by NaOH and osmolarity 300–310 mOsm. The 0.5 mM EGTA was replaced by 2 mM CaCl2 for the recordings in DRG neurons. TRPA1 currents development was monitored with repetitive injections of 300 ms duration voltage ramps from −100 to +100 mV every 2 s and the holding potential was set to 0 mV for 50 ms, existing in both sides of the voltage ramp. To record inward currents in DRG neurons, we conducted voltage clamp at holding membrane potential of −70 mV. Solutions were switched using a gravity-fed continuous focal perfusion system.

Series [4] concerns the target mTRPA1 (Mus musculus, UniProt Q8BLA8). Briefly: Whole-cell patch-clamp, HEK293 cells expressing mTRPA1. Also on record: expressed in transfected cells; host or cells: HEK293. To be noted: 30 μM, calcium-free external solution. It counts as cell-based. On the procedure: as §1, §2
Series [5] has as its system hens. Briefly: Transmission electron microscopy of hen spinal cord and sciatic nerve. To be noted: 21 days after exposure. It counts as in vivo. On the procedure: For hens, the animals were anesthetized with sodium pentobarbital (100 mg kg^−1) and killed 21 days after exposure to TOCP and malathion. They were then perfused with normal saline followed immediately by 4% paraformaldehyde. The lumbar spinal cord at approximately the L2-L3 level and the sciatic nerve of the left leg were removed and fixed by immersion in ice-cold 2.5% glutaraldehyde. Subsequently, the samples were post-fixed in 1% OsO4 for 1 h, dehydrated with the ethanol series, and embedded in epon resin. Sixty-nanometer ultra-thin sections were double stained with lead citrate and uranyl acetate and examined with an electron microscopy.

The target in series [6] is T3, hTRPA1 (Homo sapiens, UniProt O75762).
T3 construct: expressed in transfected cells; host or cells: HEK293, transient, EGFP plasmid co-transfected
Description: cell-based. It counts as cell-based. To be noted: 30 μM, calcium-free external solution. On the procedure:
as §1, §2

Series [7] concerns hens. It counts as in vivo, hen. To be noted: hens, TOCP single dose 750 mg kg−1, end of the 21-day period. On the procedure:
The chosen adult Hyline Brown hens were raised individually in stainless steel wire cages. After 7 days of acclimatization, the chosen hens were randomly divided into groups (n=6–10 for each group). The hens in the delayed neuropathy groups were administered a single dose of 750 mg kg^−1 TOCP and repeated doses of 75 mg kg^−1 malathion by gavage. TOCP and malathion were dissolved in corn oil and administered at 0.65 ml kg^−1. In the HC030031 treatment groups, 100 mg kg^−1 HC030031 was administered by gavage daily beginning at day 0 or day 11. All hens were examined daily for signs of delayed neurotoxicity. A five-point graded scale was used to describe the clinical symptoms of delayed neuropathy, with 0 indicating normal ambulation; (1) suspected ataxia (lack of strength in the legs and tottering); (2) mild ataxia (slow, clumsy and unsteady gait); (3) gross ataxia (waddling gait and staggering and falling despite being active); (4) mild paralysis (typical paralytic posture and lame appearance); and (5) complete paralysis (unable to maintain posture, stand up or move at all), as described previously.

T2 sequence (Q6RI86 whole entry): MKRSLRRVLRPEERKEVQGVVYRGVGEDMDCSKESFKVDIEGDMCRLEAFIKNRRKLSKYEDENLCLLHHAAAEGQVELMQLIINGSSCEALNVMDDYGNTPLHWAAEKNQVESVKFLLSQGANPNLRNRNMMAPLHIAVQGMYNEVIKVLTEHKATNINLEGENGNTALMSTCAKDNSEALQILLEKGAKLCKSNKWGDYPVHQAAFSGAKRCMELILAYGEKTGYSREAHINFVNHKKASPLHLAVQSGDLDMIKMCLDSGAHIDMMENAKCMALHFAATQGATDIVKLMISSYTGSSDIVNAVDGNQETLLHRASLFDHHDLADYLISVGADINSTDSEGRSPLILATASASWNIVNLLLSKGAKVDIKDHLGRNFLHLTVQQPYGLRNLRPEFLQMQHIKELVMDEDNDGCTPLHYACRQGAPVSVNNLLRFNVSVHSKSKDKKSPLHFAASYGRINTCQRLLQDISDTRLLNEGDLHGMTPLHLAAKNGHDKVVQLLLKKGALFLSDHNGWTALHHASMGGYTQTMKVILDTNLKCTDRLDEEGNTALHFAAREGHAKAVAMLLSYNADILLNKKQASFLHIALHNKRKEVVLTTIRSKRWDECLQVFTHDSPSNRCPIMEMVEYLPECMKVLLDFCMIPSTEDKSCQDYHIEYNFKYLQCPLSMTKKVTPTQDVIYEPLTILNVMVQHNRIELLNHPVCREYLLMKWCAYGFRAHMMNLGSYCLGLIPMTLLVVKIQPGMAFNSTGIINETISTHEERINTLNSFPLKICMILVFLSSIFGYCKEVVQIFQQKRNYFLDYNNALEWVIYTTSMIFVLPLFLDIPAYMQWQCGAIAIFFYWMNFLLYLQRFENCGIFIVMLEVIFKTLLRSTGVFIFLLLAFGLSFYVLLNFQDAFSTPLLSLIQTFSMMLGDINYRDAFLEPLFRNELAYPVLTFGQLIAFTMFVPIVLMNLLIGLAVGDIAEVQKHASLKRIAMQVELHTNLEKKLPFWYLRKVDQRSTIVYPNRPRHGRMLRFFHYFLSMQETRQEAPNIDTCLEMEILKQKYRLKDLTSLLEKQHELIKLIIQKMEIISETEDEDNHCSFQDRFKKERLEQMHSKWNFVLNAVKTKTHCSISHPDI
Chain of mTRPA1 (Q8BLA8 whole entry, the tested form may be a part): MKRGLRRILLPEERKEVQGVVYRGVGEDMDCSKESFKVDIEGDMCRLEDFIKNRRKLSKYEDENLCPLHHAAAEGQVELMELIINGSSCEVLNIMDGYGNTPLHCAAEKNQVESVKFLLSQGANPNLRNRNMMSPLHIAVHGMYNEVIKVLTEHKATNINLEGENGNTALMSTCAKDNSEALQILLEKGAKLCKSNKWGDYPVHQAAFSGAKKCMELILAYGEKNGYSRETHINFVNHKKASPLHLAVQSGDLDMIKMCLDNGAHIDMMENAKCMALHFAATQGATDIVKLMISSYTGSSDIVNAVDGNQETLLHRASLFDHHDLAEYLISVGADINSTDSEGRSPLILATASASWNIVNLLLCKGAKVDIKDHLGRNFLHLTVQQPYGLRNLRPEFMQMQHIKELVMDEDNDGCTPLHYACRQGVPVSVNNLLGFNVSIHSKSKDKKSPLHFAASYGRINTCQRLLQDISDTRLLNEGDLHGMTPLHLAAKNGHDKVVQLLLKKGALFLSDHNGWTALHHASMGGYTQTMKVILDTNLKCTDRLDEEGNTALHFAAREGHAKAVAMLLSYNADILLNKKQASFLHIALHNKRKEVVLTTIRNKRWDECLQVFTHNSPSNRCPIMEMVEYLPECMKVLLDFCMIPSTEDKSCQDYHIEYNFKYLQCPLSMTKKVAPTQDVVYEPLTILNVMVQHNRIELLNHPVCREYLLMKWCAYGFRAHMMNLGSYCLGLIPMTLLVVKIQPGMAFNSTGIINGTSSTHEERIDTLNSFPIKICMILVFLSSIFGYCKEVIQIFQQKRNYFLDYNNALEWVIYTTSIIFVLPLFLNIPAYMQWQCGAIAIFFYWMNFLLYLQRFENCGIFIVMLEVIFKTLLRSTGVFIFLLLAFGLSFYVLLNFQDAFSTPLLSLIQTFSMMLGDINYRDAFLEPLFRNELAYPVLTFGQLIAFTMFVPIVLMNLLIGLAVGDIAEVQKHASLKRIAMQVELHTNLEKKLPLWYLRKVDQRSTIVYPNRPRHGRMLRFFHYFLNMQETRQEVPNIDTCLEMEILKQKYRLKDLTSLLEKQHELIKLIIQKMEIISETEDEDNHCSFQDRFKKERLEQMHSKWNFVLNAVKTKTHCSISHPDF
T3 sequence (O75762 whole entry): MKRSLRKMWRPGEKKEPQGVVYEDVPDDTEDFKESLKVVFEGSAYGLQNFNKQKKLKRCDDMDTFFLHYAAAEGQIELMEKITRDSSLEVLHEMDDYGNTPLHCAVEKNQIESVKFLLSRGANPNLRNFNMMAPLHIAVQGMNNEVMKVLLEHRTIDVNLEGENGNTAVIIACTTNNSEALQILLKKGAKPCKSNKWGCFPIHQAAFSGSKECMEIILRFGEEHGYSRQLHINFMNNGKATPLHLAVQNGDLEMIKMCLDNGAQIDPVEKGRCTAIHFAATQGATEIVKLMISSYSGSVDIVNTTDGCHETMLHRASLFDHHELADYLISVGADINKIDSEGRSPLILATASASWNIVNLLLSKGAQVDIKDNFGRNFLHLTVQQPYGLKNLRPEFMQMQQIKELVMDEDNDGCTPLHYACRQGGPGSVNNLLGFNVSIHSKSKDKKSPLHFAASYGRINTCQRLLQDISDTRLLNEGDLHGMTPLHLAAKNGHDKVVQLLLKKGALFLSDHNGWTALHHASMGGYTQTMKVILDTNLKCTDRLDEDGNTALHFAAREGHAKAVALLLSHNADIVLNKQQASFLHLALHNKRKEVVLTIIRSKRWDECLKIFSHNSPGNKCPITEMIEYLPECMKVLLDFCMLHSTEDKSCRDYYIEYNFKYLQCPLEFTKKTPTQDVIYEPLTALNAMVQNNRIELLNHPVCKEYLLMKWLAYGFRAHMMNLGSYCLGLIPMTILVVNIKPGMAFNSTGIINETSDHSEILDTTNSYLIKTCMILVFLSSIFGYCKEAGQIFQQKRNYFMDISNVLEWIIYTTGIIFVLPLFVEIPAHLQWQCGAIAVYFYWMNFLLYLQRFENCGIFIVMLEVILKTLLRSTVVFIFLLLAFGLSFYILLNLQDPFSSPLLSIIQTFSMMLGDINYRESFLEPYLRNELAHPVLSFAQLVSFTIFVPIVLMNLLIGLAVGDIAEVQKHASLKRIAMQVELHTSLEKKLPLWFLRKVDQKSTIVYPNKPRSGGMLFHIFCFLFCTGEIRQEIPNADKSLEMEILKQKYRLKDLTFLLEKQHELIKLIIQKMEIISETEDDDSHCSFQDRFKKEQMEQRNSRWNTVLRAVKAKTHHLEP

Turning to `O=C(O)c1ccccc1Nc1cccc(C(F)(F)F)c1` [flufenamic acid], the “role of the mutated residues (except C414) for activation of TRPA1” value in series [1] is on record as “not essential”.

Compound `Cc1ccccc1OP(=O)(Oc1ccccc1C)Oc1ccccc1C` [TOCP, tri-ortho-cresyl phosphate] registered a concentration for a half-maximal effect (EC50) in series [2] of 15.8 ± 1.37 µM. Moreover, in series [2] (calcium-free external solution), the “activation of cTRPA1 whole-cell currents” value is “effectively activate”. Also, the “activation of rTRPA1 whole-cell currents” value in series [3] is “effectively activate”. The “activation of mTRPA1 whole-cell currents” value in series [4] is listed as “effectively activate”. The “damage of spinal cord and sciatic nerve (TEM)” value in series [5] is “severely damaged the spinal cord and sciatic nerve”. Moreover, in series [6], the “activation of hTRPA1 whole-cell currents” value is listed as “effectively activate”. Further, in series [7], the “clinical symptoms of delayed neuropathy” value is on record as “completely paralyzed”.

The EC50 is the concentration that produces a half-maximal response. Lower therefore signals a more potent agent.

For the origin of these results see paper PMC5537602, “TRPA1 channel mediates organophosphate-induced delayed neuropathy” (Cell Discovery, 2017).
